In patent US11622970B2, “BCL-2 inhibitors and their use as pharmaceuticals” (PRELUDE THERAPEUTICS INCORPORATED, priority 2020, dated 2023):

Molecular target: BCL-2 recombinant protein (Homo sapiens, UniProt P10415)
Test: Cell free Bcl-2:Bak affinity assay (Bcl-2 Bak), HTRF competition of FAM-Bak peptide
Format: binding
Details: 4 nM BCL-2 recombinant protein, 100 nM FAM-Bak; for IC50: 10-concentration IC50 mode, read-out: potency (IC50); for inhibition at 1 µM: 1 μM compound, read-out: potency (% inhibition at 1 μM)
Procedure: Biological Assays: Cell Free Bcl-2:Bak Affinity Assay (Bcl-2 Bak)
The assay is based on the competition of fluorescently labeled peptide binding to BCL-2 and the binding is monitored by HTRF signals between anti-GST-Tb and FAM-peptide using GST-Tag BCL proteins. Testing compounds were dissolved in DMSO at 10 mM and tested in 10-concentration IC50 mode. The compounds of interest in DMSO were added in 3-fold serial dilution to each well containing 4 nM of BCL-2 recombinant protein, 20 mM K Phosphate, pH 7.5, 50 mM NaCl, 1 mM EDTA, 0.005% Triton X-100, by using acoustic technology (Labcyte echo 550), After 10 minutes incubation at room temperature, 100 nM of FAM-Bak was added and incubated for another 10 minutes before addition of Anti-GST-Tb. The plate was then sealed and further incubated at room temperature for 60 minutes in the dark before reading. Percentage of inhibition was calculated by % inhibition=100×(FDMSO−F)/(FDMSO−FPC), in which FDMSO is DMSO control and FPC is a positive control. IC50 values were determined from dose-response curve by fitting the percent inhibition against compound concentration using GraphPad Prism software.

BCL-2 recombinant protein, sequence (P10415 whole entry): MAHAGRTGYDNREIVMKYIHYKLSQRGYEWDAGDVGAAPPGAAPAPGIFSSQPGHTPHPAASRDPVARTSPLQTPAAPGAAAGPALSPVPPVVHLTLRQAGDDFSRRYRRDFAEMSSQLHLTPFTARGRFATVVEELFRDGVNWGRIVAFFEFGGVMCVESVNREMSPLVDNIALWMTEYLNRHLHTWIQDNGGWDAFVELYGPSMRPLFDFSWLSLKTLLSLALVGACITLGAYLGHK

| IC50 [nM] | inhibition at 1 µM [%] | SMILES |
| --- | --- | --- |
|  | 50 to 90 | Cc1nc(C(=O)NS(=O)(=O)c2ccc(N3CCN(CC4=C(c5ccc(Cl)cc5)CC(C)(C)CC4)CC3)cc2)ccc1F [Example 16, N-([4-[4-[[2-(4-chlorophenyl)-4,4-dimethylcyclohexen-1-yl]methyl]piperazin-1-yl]phenyl]sulfonyl)-5-fluoro-6-methyl pyridine-2-carboxamide] |
|  | 50 to 90 | Cn1ccc(-c2nc(C(=O)NS(=O)(=O)c3ccc(N4CCN(CC5=C(c6ccc(Cl)cc6)CC(C)(C)CC5)CC4)cc3)ccc2F)cc1=O [Example 56, N-[4-[4-[[2-(4-Chlorophenyl)-4,4-dimethylcyclohexen-1-yl]methyl]piperazin-1-yl]phenyl]sulfonyl-3-fluoro-1′-methyl-2′-oxo-1′,2′-dihydro-[2,4′-bipyridine]-6-carboxamide] |
| 10 to 100 |  | CC1(C)CCC(CN2CCN(c3ccc(S(=O)(=O)NC(=O)c4ccc(COc5ccc(Cl)cc5)c([N+](=O)[O-])c4)cc3)CC2)=C(c2ccc(Cl)cc2)C1 [Example 39, N-([4-[4-[[2-(4-chlorophenyl)-4,4-dimethylcyclohexen-1-yl]methyl]piperazin-1-yl]phenyl]sulfonyl)-4-((4-chlorophenoxy)methyl)-3-nitrobenzamide] |
| 10 to 100 |  | CC1(C)CCC(CN2CCN(c3ccc(S(=O)(=O)NC(=O)c4cc(COc5ccc(Cl)cc5)cc([N+](=O)[O-])c4)c(Oc4cnc5[nH]ccc5c4)c3)CC2)=C(c2ccc(Cl)cc2)C1 [Example 86, 3-[(4-Chlorophenoxy)methyl]-N-[4-[4-[[2-(4-chlorophenyl)-4,4-dimethylcyclohexen-1-yl]methyl]piperazin-1-yl]-2-(1H-pyrrolo[2,3-b]pyridin-5-yloxy)phenyl]sulfonyl-5-nitrobenzamide] |
|  | 50 to 90 | CC1(C)CCC(CN2CCN(c3ccc(S(=O)(=O)NC(=O)c4ccc5ncccc5c4)cc3)CC2)=C(c2ccc(Cl)cc2)C1 [Example 5, N-([4-[4-[[2-(4-chlorophenyl)-4,4-dimethylcyclohexen-1-yl]methyl]piperazin-1-yl]phenyl]sulfonyl)quinoline-6-carboxamide] |
|  | > 90 | CC1(C)CCC(CN2CCN(c3ccc(S(=O)(=O)NC(=O)c4ccc(COc5cc(Cl)ccc5Cl)cc4)cc3)CC2)=C(c2ccc(Cl)cc2)C1 [Example 35, N-([4-[4-[[2-(4-chlorophenyl)-4,4-dimethylcyclohexen-1-yl]methyl]piperazin-1-yl]phenyl]sulfonyl)-4-((2,5-dichlorophenoxy)methyl)benzamide] |
| 10 to 100 |  | CC1(C)CCC(CN2CCN(c3ccc(S(=O)(=O)NC(=O)c4ccc(F)c(COc5ccc(Cl)cc5)c4)cc3)CC2)=C(c2ccc(Cl)cc2)C1 [Example 37, N-([4-[4-[[2-(4-chlorophenyl)-4,4-dimethylcyclohexen-1-yl]methyl]piperazin-1-yl]phenyl]sulfonyl)-3-((4-chlorophenoxy)methyl)-4-fluorobenzamide] |
|  | 50 to 90 | CC1(C)CCC(CN2CCN(c3ccc(S(=O)(=O)NC(=O)c4ccc(F)c(OCc5ccccc5)c4)cc3)CC2)=C(c2ccc(Cl)cc2)C1 [Example 53, 3-(benzyloxy)-N-[4-[4-[[2-(4-chlorophenyl)-4,4-dimethylcyclohexen-1-yl]methyl]piperazin-1-yl]phenyl]sulfonyl-4-fluorobenzamide] |
|  | 50 to 90 | CC1(C)CCC(CN2CCN(c3ccc(S(=O)(=O)NC(=O)c4ccc(Cl)c(Cl)n4)cc3)CC2)=C(c2ccc(Cl)cc2)C1 [Example 20, 5,6-dichloro-N-([4-[4-[[2-(4-chlorophenyl)-4,4-dimethylcyclohexen-1-yl]methyl]piperazin-1-yl]phenyl]sulfonyl)pyridine-2-carboxamide] |
|  | 50 to 90 | CC1(C)CCC(CN2CCN(c3ccc(S(=O)(=O)NC(=O)c4ccc([N+](=O)[O-])c(OCc5ccccc5)n4)cc3)CC2)=C(c2ccc(Cl)cc2)C1 [Example 51, 6-(benzyloxy)-N-[4-[4-[[2-(4-chlorophenyl)-4,4-dimethylcyclohexen-1-yl]methyl]piperazin-1-yl]phenyl]sulfonyl-5-nitropyridine-2-carboxamide] |
| > 1000 |  | CC1(C)CCC(CN2CCN(c3ccc(S(=O)(=O)NC(=O)c4cccc([N+](=O)[O-])c4)cc3)CC2)=C(c2ccc(Cl)cc2)C1 [Example 32, N-([4-[4-[[2-(4-chlorophenyl)-4,4-dimethylcyclohexen-1-yl]methyl]piperazin-1-yl]phenyl]sulfonyl)-3-nitrobenzamide] |
| 10 to 100 |  | CC1(C)CCC(CN2CCN(c3ccc(S(=O)(=O)NC(=O)c4ccc(F)c(Br)n4)cc3)CC2)=C(c2ccc(Cl)cc2)C1 [Example 33, 6-bromo-N-([4-[4-[[2-(4-chlorophenyl)-4,4-dimethylcyclohexen-1-yl]methyl]piperazin-1-yl]phenyl]sulfonyl)-5-fluoropyridine-2-carboxamide] |

The next lines start with the compound.

| SMILES | IC50 [nM] | inhibition at 1 µM [%] |
| --- | --- | --- |
| CC1(C)CCC(CN2CCN(c3ccc(S(=O)(=O)NC(=O)c4ccc(F)c(Br)n4)c(Oc4cnc5[nH]ccc5c4)c3)CC2)=C(c2ccc(Cl)cc2)C1 [Example 67, N-[4-[4-[[2-(4-chlorophenyl)-4,4-dimethylcyclohexen-1-yl]methyl]piperazin-1-yl]-2-(1H-pyrrolo[2,3-b]pyridin-5-yloxy)phenyl]sulfonyl-6-bromo-5-fluoropyridine-2-carboxamide] | 10 to 100 |  |
| CC1(C)CCC(CN2CCN(c3ccc(S(=O)(=O)NC(=O)c4cccc(C(F)(F)F)n4)cc3)CC2)=C(c2ccc(Cl)cc2)C1 [Example 21, N-([4-[4-[[2-(4-chlorophenyl)-4,4-dimethylcyclohexen-1-yl]methyl]piperazin-1-yl]phenyl]sulfonyl)-6-(trifluoromethyl)pyridine-2-carboxamide] |  | 50 to 90 |
| CC1(C)CCC(CN2CCN(c3ccc(S(=O)(=O)NC(=O)Cc4ccccc4F)cc3)CC2)=C(c2ccc(Cl)cc2)C1 [Example 30, N-([4-[4-[[2-(4-chlorophenyl)-4,4-dimethylcyclohexen-1-yl]methyl]piperazin-1-yl]phenyl]sulfonyl)-2-(2-fluorophenyl)acetamide] |  | 50 to 90 |
| Cc1ccc(CC(=O)NS(=O)(=O)c2ccc(N3CCN(CC4=C(c5ccc(Cl)cc5)CC(C)(C)CC4)CC3)cc2)cn1 [Example 26, N-([4-[4-[[2-(4-chlorophenyl)-4,4-dimethylcyclohexen-1-yl]methyl]piperazin-1-yl]phenyl]sulfonyl)-2-(6-methylpyridin-3-yl)acetamide] |  | < 50 |
| COc1c([N+](=O)[O-])cc(C(=O)NS(=O)(=O)c2ccc(N3CCN(CC4=C(c5ccc(Cl)cc5)CC(C)(C)CC4)CC3)cc2Oc2cnc3[nH]ccc3c2)c(Cl)c1C [Example 101, 2-chloro-N-[4-[4-[[2-(4-chlorophenyl)-4,4-dimethylcyclohexen-1-yl]methyl]piperazin-1-yl]-2-(1H-pyrrolo[2,3-b]pyridin-5-yloxy)phenyl]sulfonyl-4-methoxy-3-methyl-5-nitrobenzamide] | 10 to 100 |  |
| Cc1cc([N+](=O)[O-])cc(C(=O)NS(=O)(=O)c2ccc(N3CCN(CC4=C(c5ccc(Cl)cc5)CC(C)(C)CC4)CC3)cc2Oc2cnc3[nH]ccc3c2)n1 [Example 66, N-[4-[4-[[2-(4-Chlorophenyl)-4,4-dimethylcyclohexen-1-yl]methyl]piperazin-1-yl]-2-(1H-pyrrolo[2,3-b]pyridin-5-yloxy)phenyl]sulfonyl-6-methyl-4-nitropyridine-2-carboxamide] | 10 to 100 |  |
| CC1(C)CCC(CN2CCN(c3ccc(S(=O)(=O)NC(=O)c4cc(C5CC5)on4)cc3)CC2)=C(c2ccc(Cl)cc2)C1 [Example 12, N-([4-[4-[[2-(4-chlorophenyl)-4,4-dimethylcyclohexen-1-yl]methyl]piperazin-1-yl]phenyl]sulfonyl)-5-cyclopropylisoxazole-3-carboxamide] |  | < 50 |
| CNc1c([N+](=O)[O-])cc(C(=O)NS(=O)(=O)c2ccc(N3CCN(CC4=C(c5ccc(Cl)cc5)CC(C)(C)CC4)CC3)cc2Oc2cnc3[nH]ccc3c2)c(Cl)c1C [Example 98, 2-chloro-N-[4-[4-[[2-(4-chlorophenyl)-4,4-dimethylcyclohexen-1-yl]methyl]piperazin-1-yl]-2-(1H-pyrrolo[2,3-b]pyridin-5-yloxy)phenyl]sulfonyl-3-methyl-4-(methylamino)-5-nitrobenzamide] | 10 to 100 |  |
| Cc1c(Cl)c(C(=O)NS(=O)(=O)c2ccc(N3CCN(CC4=C(c5ccc(Cl)cc5)CC(C)(C)CC4)CC3)cc2Oc2cnc3[nH]ccc3c2)cc([N+](=O)[O-])c1OCC1CCCO1 (stereo not shown) [Example 107, 2-chloro-N-[4-[4-[[2-(4-chlorophenyl)-4,4-dimethylcyclohexen-1-yl]methyl]piperazin-1-yl]-2-(1H-pyrrolo[2,3-b]pyridin-5-yloxy)phenyl]sulfonyl-3-methyl-5-nitro-4-(oxolan-2-ylmethoxy)benzamide] | < 10 |  |
| Cc1cc(C(=O)NS(=O)(=O)c2ccc(N3CCN(CC4=C(c5ccc(Cl)cc5)CC(C)(C)CC4)CC3)cc2Oc2cnc3[nH]ccc3c2)nn1C [Example 77, N-[4-[4-[[2-(4-chlorophenyl)-4,4-dimethylcyclohexen-1-yl]methyl]piperazin-1-yl]-2-(1H-pyrrolo[2,3-b]pyridin-5-yloxy)phenyl]sulfonyl-1,5-dimethylpyrazole-3-carboxamide] | 100 to 1000 |  |
